Experimental data reported in patent US20160100574A1, “Antimicrobial Compositions Comprising Glyceryl Ethers” (SYMRISE AG, priority 2013, published 2016).
Blank lines part the entries; values can stand above or below the molecule they belong to.

Legend:
Format in all cases: cell-based
[1] = system: A. brasiliensis; assay: Challenge test / synergy (Kull equation), A. brasiliensis
Method: (§1) 1% b.w. of heptylglycerin, benzylglycerin and phenylpropylglycerin, respectively was added to an aqueous emulsion of Glyceryl stearyl citrate (Dracorin CE). The formulations were tested in standard challenge tests against various micro-organisms.
To calculate the synergism between compounds of formula (I) and other antimicrobial actives, the Kull equation^1 2 was used
SI=(Cmixture×PA)/CA+(Cmixture×PB)/CB (I)
where SI is the Synergy Index according to Kull^1), 2) CA is the cell count for substance A CB is the cell count for substance B Cmixture is the cell count for the mixture of substances A and B PA is the proportion of the substance A in the mixture PB is the proportion of the substance B in the mixture. ^1 Kull, F. C., Eismann, P. C., Sylvestrowicz, H. D., and R. L. Mayer (1961). Mixtures of Quaternary Ammonium Compounds and Long-chain Fatty Acids as Antifungal Agents. Applied Microbiology 9, 538-541.^2 Steinberg, D.C. (2000). Measuring Synergy. Cosmetics & Toiletries 115 (11), 59-62.
Colony counts of <100 were arbitrarily set to 100, in order to allow for synergy calculations with the above equation. The abbreviation “n.a.” means not applicable.

[2] = system: Aspergillus brasiliensis; assay: Minimum inhibitory concentration according to DIN 58940, Aspergillus brasiliensis; conditions: single antimicrobial agents
From the text: (§2) In order to calculate the Synergy Index SI with MIC values, the Kull equation is used as follows:
(§3) SI=(MICmixture×PA)/MICA+(MICmixture×PB)/MICB (II)
(§4) where SI is the Synergy Index according to Kull^1), 2) MICA is the MIC value for substance A MICB is the MIC value for substance B MICmixture is the MIC value for the mixture of substances A and B PA is the proportion of the substance A in the mixture PB is the proportion of the substance B in the mixture. b) Mixtures containing 3 components
(§5) SI=(MICmixture×PA)/MICA+(MICmixture×PB)/MICB+(MICmixture×PC)/MICC
(§6) where SI is the Synergy Index according to Kull^1), 2) MICA is the MIC value for substance A MICB is the MIC value for substance B MICC is the MIC value for substance C MICmixture is the MIC value for the mixture of substances […] PA is the proportion of the substance A in the mixture PB is the proportion of the substance B in the mixture. PC is the proportion of the substance C in the mixture.

[3] = system: Escherichia coli; assay: Minimum inhibitory concentration according to DIN 58940, Escherichia coli; conditions: single antimicrobial agents
From the text: as §2, §3, §4, §5, §6

[4] = system: Staphylococcus aureus; assay: Minimum inhibitory concentration according to DIN 58940, Staphylococcus aureus; conditions: single antimicrobial agents
From the text: as §2, §3, §4, §5, §6

[5] = system: Pseudomonas aeruginosa; assay: Minimum inhibitory concentration according to DIN 58940, Pseudomonas aeruginosa; conditions: single antimicrobial agents
From the text: as §2, §3, §4, §5, §6

[6] = system: Candida albicans; assay: Minimum inhibitory concentration according to DIN 58940, Candida albicans; conditions: single antimicrobial agents
From the text: as §2, §3, §4, §5, §6

[7] = system: S. aureus; assay: Challenge test of preserved emulsion, S. aureus
Method: as §1, with “micro-organisms. The results are shown in Table 1 and indicate the high activity of the actives against yeast and bacteria, but not against mould.” for “micro-organisms.”

[8] = system: P. aeruginosa; assay: Challenge test of preserved emulsion, P. aeruginosa
Method: as §1, with “micro-organisms. The results are shown in Table 1 and indicate the high activity of the actives against yeast and bacteria, but not against mould.” for “micro-organisms.”

[9] = system: E. coli; assay: Challenge test of preserved emulsion, E. coli
Method: as §1, with “micro-organisms. The results are shown in Table 1 and indicate the high activity of the actives against yeast and bacteria, but not against mould.” for “micro-organisms.”

[10] = system: C. albicans; assay: Challenge test of preserved emulsion, C. albicans
Method: as §1, with “micro-organisms. The results are shown in Table 1 and indicate the high activity of the actives against yeast and bacteria, but not against mould.” for “micro-organisms.”

[11] = Table 2, day 0, 1.0% total active
[12] = Table 2, day 0, relative to day 0, 1.0% total active
[13] = Table 2, day 2, 1.0% total active
[14] = Table 2, day 2, relative to day 0, 1.0% total active
[15] = Table 2, day 7, 1.0% total active
[16] = Table 2, day 7, relative to day 0, 1.0% total active
[17] = Table 2, day 14, 1.0% total active
[18] = Table 2, day 14, relative to day 0, 1.0% total active
[19] = Table 2, day 28, 1.0% total active
[20] = Table 2, day 28, relative to day 0, <100 set to 100, 1.0% total active
[21] = Day 0, 1% b.w. active in aqueous emulsion of Glyceryl stearyl citrate (Dracorin CE)
[22] = Day 2, 1% b.w. active in aqueous emulsion of Glyceryl stearyl citrate (Dracorin CE)
[23] = Day 14, 1% b.w. active in aqueous emulsion of Glyceryl stearyl citrate (Dracorin CE)
[24] = Day 28, 1% b.w. active in aqueous emulsion of Glyceryl stearyl citrate (Dracorin CE)
[25] = Day 7, 1% b.w. active in aqueous emulsion of Glyceryl stearyl citrate (Dracorin CE)

MIC values Aspergillus brasiliensis [2]: 4000 ppm
MIC values E. coli [3]: 4000 ppm
MIC values Staphylococcus aureus [4]: 6000 ppm
MIC values Pseudomonas aeruginosa [5]: 4000 ppm
MIC values Candida albicans [6]: 6000 ppm
Compound: CC(=O)c1ccc(O)cc1 [4HAP, 4-hydroxyacetophenone]
Colony counts day 0 [1, 11]: 300.000 cfu/g formulation
Relative colony counts day 0 [1, 12]: 1.0000
Colony counts day 2 [1, 13]: 56.000 cfu/g formulation
Relative colony counts day 2 [1, 14]: 0.1867
Colony counts day 7 [1, 15]: 1.900 cfu/g formulation
Relative colony counts day 7 [1, 16]: 0.0063
Colony counts day 14 [1, 17]: 1.900 cfu/g formulation
Relative colony counts day 14 [1, 18]: 0.0063
Colony counts day 28 [1, 19]: <100 cfu/g formulation
Relative colony counts day 28 [1, 20]: 0.0003
Colony counts day 0 ([1]; Table 3, day 0, 1.0% total active): 300.000 cfu/g formulation
Relative colony counts day 0 ([1]; Table 3, day 0, relative to day 0, 1.0% total active): 1.0000
Colony counts day 2 ([1]; Table 3, day 2, 1.0% total active): 56.000 cfu/g formulation
Relative colony counts day 2 ([1]; Table 3, day 2, relative to day 0, 1.0% total active): 0.1867
Colony counts day 7 ([1]; Table 3, day 7, 1.0% total active): 1.900 cfu/g formulation
Relative colony counts day 7 ([1]; Table 3, day 7, relative to day 0, 1.0% total active): 0.0063
Colony counts day 14 ([1]; Table 3, day 14, 1.0% total active): 1.900 cfu/g formulation
Relative colony counts day 14 ([1]; Table 3, day 14, relative to day 0, 1.0% total active): 0.0063
Colony counts day 28 ([1]; Table 3, day 28, 1.0% total active): <100 cfu/g formulation
Relative colony counts day 28 ([1]; Table 3, day 28, relative to day 0, <100 set to 100, 1.0% total active): 0.0003

MIC ([2]; Aspergillus brasiliensis): 20 mg/mL
MIC ([3]; Escherichia coli, read-out: MIC values E. coli): 10 mg/mL
MIC ([4]; Staphylococcus aureus): 20 mg/mL
MIC ([5]; Pseudomonas aeruginosa): 20 mg/mL
MIC ([6]; Candida albicans): 20 mg/mL
Compound: OCC(O)COCc1ccccc1 (stereo not drawn) [Benzylglycerin]
colony counts Day 0 [1, 21]: 360.000 cfu/g formulation
colony counts Day 2 [1, 22]: 490.000 cfu/g formulation
colony counts Day 14 [1, 23]: 300.000 cfu/g formulation
colony counts Day 28 [1, 24]: 30.000 cfu/g formulation
colony counts Day 0 [7, 21]: 240.000 cfu/g formulation
colony counts Day 2 [7, 22]: 700 cfu/g formulation
colony counts Day 7 [7, 25]: <100 cfu/g formulation
colony counts Day 14 [7, 23]: 0 cfu/g formulation
colony counts Day 28 [7, 24]: 0 cfu/g formulation
colony counts Day 0 [8, 21]: 210.000 cfu/g formulation
colony counts Day 2 [8, 22]: 0 cfu/g formulation
colony counts Day 7 [8, 25]: 0 cfu/g formulation
colony counts Day 14 [8, 23]: 0 cfu/g formulation
colony counts Day 28 [8, 24]: 0 cfu/g formulation
colony counts Day 0 [9, 21]: 250.000 cfu/g formulation
colony counts Day 2 [9, 22]: 0 cfu/g formulation
colony counts Day 7 [9, 25]: 0 cfu/g formulation
colony counts Day 14 [9, 23]: 0 cfu/g formulation
colony counts Day 28 [9, 24]: 0 cfu/g formulation
colony counts Day 14 [10, 23]: 0 cfu/g formulation
colony counts Day 28 [10, 24]: 0 cfu/g formulation

MIC values Aspergillus brasiliensis [2]: 2000 ppm
MIC values E. coli [3]: 2500 ppm
MIC values Staphylococcus aureus [4]: 2000 ppm
MIC values Pseudomonas aeruginosa [5]: >20000 ppm
MIC values Candida albicans [6]: 2000 ppm
Compound: CCCCC(CC)COCC(O)CO (stereo not drawn) [Ethylhexylglycerin]
Colony counts day 0 [1, 11]: 315.000 cfu/g formulation
Relative colony counts day 0 [1, 12]: 1.0000
Colony counts day 2 [1, 13]: 159.000 cfu/g formulation
Relative colony counts day 2 [1, 14]: 0.5048
Colony counts day 7 [1, 15]: 150.000 cfu/g formulation
Relative colony counts day 7 [1, 16]: 0.4762
Colony counts day 14 [1, 17]: 304.000 cfu/g formulation
Relative colony counts day 14 [1, 18]: 0.9635
Colony counts day 28 [1, 19]: 304.000 cfu/g formulation
Relative colony counts day 28 [1, 20]: 0.9635
